We go through 8 compounds from PubChem BioAssay (NCI).

Test systems include SR leukemia; HCT-15 colon; UACC-257 melanoma; IGROV1 ovarian; BT-549 breast; U251 CNS; MDA-MB-435; CCRF-CEM leukemia; HCT-116 colon; SK-MEL-5 melanoma.
Assay in all cases: inhibition of tumour cell growth, NCI panel, 48 h

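Interpolation was linear, between the two tested concentrations surrounding the appropriate level; five concentrations were tested over 48 hours in 96-well plates. The concentration for 50% growth inhibition is given as GI50. Definition used: TGI = concentration required for complete inhibition of growth.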

In the case of `O=C1CCC(N2C(=O)c3cccc(NCCOCCOCCNC(=O)c4cc5c(o4)C(=O)c4ccccc4C5=O)c3C2=O)C(=O)N1` (stereo not given), the GI50 in the test with SR leukemia is 1.76 µM; with HCT-15 colon, 4.08 µM; in the test on UACC-257 melanoma it was 1.48 µM; in the test on IGROV1 ovarian, 1.87 µM; in the test with BT-549 breast, 1.47 µM; in the test with U251 CNS, 1.72 µM. Also, the GI50 with MDA-MB-435 is 1.23 µM; in the test on CCRF-CEM leukemia, 3.45 µM; with HCT-116 colon it was 2.32 µM; in the test with SK-MEL-5 melanoma it was 0.787 µM. In addition, the TGI in the test with SR leukemia was 22.9 µM; with HCT-15 colon it was 19.2 µM; in the test on UACC-257 melanoma it was 2.85 µM; with IGROV1 ovarian, 4.29 µM; in the test on BT-549 breast, 2.84 µM; in the test with U251 CNS, 3.25 µM. For the same compound, the TGI in the test on MDA-MB-435 stood at 2.63 µM; in the test on CCRF-CEM leukemia it was 28.9 µM; in the test on HCT-116 colon it was 6.9 µM; in the test on SK-MEL-5 melanoma, 2.07 µM.
Consider `CC(=Nc1ccccc1)C1=C(O)C(Cc2ccc(F)cc2)NC1=O` (stereo not given), for which the GI50 is 0.26 µM in the test on SR leukemia; 0.488 µM in the test on HCT-15 colon; more than 100 µM in the test on UACC-257 melanoma; 1.71 µM in the test on IGROV1 ovarian; 0.879 µM with BT-549 breast; 0.825 µM in the test with U251 CNS. Besides, the GI50 was 0.16 µM with MDA-MB-435, 1.81 µM in the test with CCRF-CEM leukemia, 0.49 µM in the test with HCT-116 colon and 0.472 µM in the test on SK-MEL-5 melanoma. Also, the TGI in the test on SR leukemia, in the test on HCT-15 colon, with UACC-257 melanoma, in the test on IGROV1 ovarian, in the test with BT-549 breast and in the test with U251 CNS was more than 100 µM each time. Further, the TGI with MDA-MB-435 is 0.449 µM; in the test on CCRF-CEM leukemia it was more than 100 µM; with HCT-116 colon, more than 100 µM; in the test with SK-MEL-5 melanoma, more than 100 µM.
For `CCOC(=O)C(=O)C(/C(=N/N(C)C)C(=O)Nc1ccc(C)cc1C)c1nc2ccccc2[nH]c1=O` (stereo not given), the TGI in the test with SR leukemia, in the test with HCT-15 colon, in the test with UACC-257 melanoma, in the test on IGROV1 ovarian, in the test on BT-549 breast and in the test on U251 CNS was more than 100 µM in each case. Besides, the TGI in the test on MDA-MB-435, with CCRF-CEM leukemia, in the test with HCT-116 colon and with SK-MEL-5 melanoma was more than 100 µM each time.
With `Cc1cc(C)c(O)c(CNCCCNCc2cc(C)cc(C)c2O)c1`, the GI50 with SR leukemia is 2.06 µM; in the test on HCT-15 colon, 2.01 µM; with UACC-257 melanoma it was 2.14 µM; in the test with IGROV1 ovarian it was 4.52 µM; in the test on BT-549 breast, 10.9 µM; in the test with U251 CNS it was 1.95 µM. Besides, the GI50 was 1.54 µM in the test with MDA-MB-435, 3.82 µM in the test on CCRF-CEM leukemia, 2.99 µM in the test on HCT-116 colon and 1.57 µM in the test with SK-MEL-5 melanoma. Also, the TGI came to 6 µM with SR leukemia; 4.66 µM with HCT-15 colon; 4.08 µM in the test on UACC-257 melanoma; 18.5 µM with IGROV1 ovarian; 24.5 µM with BT-549 breast; 3.89 µM with U251 CNS. In addition, the TGI in the test with MDA-MB-435 was 2.93 µM; in the test on CCRF-CEM leukemia, 15.3 µM; in the test on HCT-116 colon, 9.49 µM; in the test with SK-MEL-5 melanoma it was 2.93 µM.
For the compound `C[C@H](C(O)CC(=O)C(C)(C)O)[C@H]1CC[C@@]2(C)[C@@H]3CC[C@H]4C(C)(C)[C@@H](OC5OC(COC6OC(CO)C(O)C(O)C6O)C(O)C(O)C5O)CC[C@]4(C)C3=CC[C@]12C` (stereo not given in full), the TGI in the test with SR leukemia, in the test on HCT-15 colon, in the test on UACC-257 melanoma, in the test with IGROV1 ovarian, in the test with BT-549 breast and with U251 CNS was more than 100 µM in each case. The TGI in the test with MDA-MB-435, with CCRF-CEM leukemia, in the test with HCT-116 colon and in the test with SK-MEL-5 melanoma was more than 100 µM each time.
Turning to `Cc1ccc(-n2c3c(c4c(CN)c(O)ccc42)CCc2ccccc2C3=O)cc1`, the GI50 in the test on SR leukemia is 2.33 µM; with HCT-15 colon, 15.9 µM; in the test with UACC-257 melanoma, 18 µM; with IGROV1 ovarian, 8.18 µM; in the test on BT-549 breast it was 10.7 µM; in the test with U251 CNS, 17.2 µM. Moreover, the GI50 with MDA-MB-435 is 3 µM; in the test with CCRF-CEM leukemia, 2.66 µM; with HCT-116 colon, 9.24 µM; in the test with SK-MEL-5 melanoma, 1.61 µM. Also, the TGI with SR leukemia worked out at 5.38 µM; with HCT-15 colon, 30.9 µM; in the test on UACC-257 melanoma, 34.1 µM; with IGROV1 ovarian it was 22.8 µM; in the test on BT-549 breast, 31.8 µM; in the test with U251 CNS it was 32.5 µM. The TGI in the test on MDA-MB-435 worked out at 8.87 µM; in the test with CCRF-CEM leukemia, 8.44 µM; with HCT-116 colon, 21.4 µM; in the test on SK-MEL-5 melanoma, 3.01 µM.
Take `CN1CCN(c2ccc(-c3cccc(CN4CCOCC4)c3)cc2NC(=O)c2c[nH]c(=O)cc2C(F)(F)F)CC1`: the GI50 in the test on SR leukemia was 26.4 µM; with HCT-15 colon, 50.3 µM; in the test with UACC-257 melanoma it was 16.9 µM; with IGROV1 ovarian it was 60.7 µM; in the test on BT-549 breast it was 23.7 µM; with U251 CNS it was 23.6 µM. Also, the GI50 in the test with MDA-MB-435 was 30.2 µM; in the test on CCRF-CEM leukemia, 58.8 µM; with HCT-116 colon, 16.4 µM; with SK-MEL-5 melanoma, 14.2 µM. The TGI with SR leukemia was 63.7 µM; in the test on HCT-15 colon, more than 100 µM; in the test on UACC-257 melanoma, 31.6 µM; in the test with IGROV1 ovarian, more than 100 µM; with BT-549 breast, more than 100 µM; with U251 CNS, more than 100 µM. Also, the TGI in the test on MDA-MB-435 is more than 100 µM; with CCRF-CEM leukemia it was more than 100 µM; with HCT-116 colon, more than 100 µM; in the test on SK-MEL-5 melanoma it was 28.3 µM.
Turning to `O=S(=O)(NCCNc1cc(-c2cn(-c3ccccc3)nc2-c2cccc(O)c2)ccn1)c1ccc(Br)cc1`, the GI50 was 1.97 µM in the test on SR leukemia; 1.8 µM in the test with HCT-15 colon; 2.8 µM with UACC-257 melanoma; 3.33 µM in the test on IGROV1 ovarian; 2.52 µM in the test with BT-549 breast; 2.21 µM in the test on U251 CNS. Further, the GI50 in the test with MDA-MB-435 was 1.79 µM; with CCRF-CEM leukemia, 2.1 µM; in the test on HCT-116 colon, 2.44 µM; with SK-MEL-5 melanoma it was 1.64 µM. For the same compound, the TGI in the test on SR leukemia is 5.58 µM; in the test on HCT-15 colon it was 4.39 µM; with UACC-257 melanoma, 7.07 µM; with IGROV1 ovarian, 15.5 µM; in the test with BT-549 breast, 6.87 µM; with U251 CNS it was 5.64 µM. In addition, the TGI with MDA-MB-435 was found to be 3.65 µM; with CCRF-CEM leukemia, 6.06 µM; in the test with HCT-116 colon it was 6.48 µM; with SK-MEL-5 melanoma, 3.03 µM.
